In patent US6605598B1, “Chemically synthesized sugar esters for the control of soft-bodied arthropods” (The United States of America as represented by the …, priority 1994, dated 2003):

Columns and labels:
[1] = tested on: tobacco aphid, Myrzus Nicotiana Blackman; experiment: Spray bioassay against tobacco aphids; format: in vivo; settings: individual SE groups; 1 mg SE/ml aqueous spray solution; after 24 hours; average of number of tests
Method: (§1) Bioassays of the total SE reaction products as well as of the individual groups of SE were conducted using the tobacco aphid, Myrzus Nicotiana Blackman, the greenhouse whitefly, Trialeurodes vaporariorum Westwood, and the sweetpotato whitefly, Bemisia tabaci Gennadius. Aqueous dispersions of sugar ester fractions, obtained from the column chromatographic step or the total reaction SE products were tested generally at a concentration of 1 mg/ml of water. To prepare the sprayable aqueous mixtures, a small amount of methanol (approximately about 20 μl per 10 mg of dried test compound) is added to the dried test compound. This is agitated gently. Then acetone is added to the methanol mixture to yield a concentration of approximately about 0.05 g/ml. This is shaken gently. To obtain a final, sprayable concentration of approximately about 1 mg sucrose ester/ml, about 10 ml of water are added to the mixture. This is then placed into an ultrasonic bath for 20 minutes. The resulting solution is ready to spray. Green-house reared apterous (wingless) aphids, that colonized a green tobacco plant, were removed with a leaf, sprayed, and kept in a closed petri dish. Percent mortality was determined after 24 hours. In a similar manner, bioassays against the green house whitefly or sweetpotato whitefly are conducted by spraying sucrose ester dispersions at 1 mg/ml of water onto whiteflies, trapped on a sticky surface, and determining percent mortality after 2-24 hours. Tables II and III below show the percent mortality of aphids treated by the individual sucrose ester groups and the total SE reaction products.

[2] = tested on: greenhouse whitefly, Trialeurodes vaporariorum Westwood; experiment: Spray bioassay against the greenhouse whitefly; format: in vivo; settings: group 2 SE, 1.0 mg/ml spray solution, after 24 hours, average of number of tests
Method: as §1

Compound | % Mortality [1] [%] | % Mortality [2] [%] | mortality at 1000 µg/mL ([2]; Trialeurodes vaporariorum) [%]
CCCCCCCC(=O)OCC1OC(OC2(COC(=O)CCCCCCC)OC(COC(=O)CCCCCCC)C(O)C2O)C(O)C(O)C1O (single isomer, unassigned) [trioctanoyl sucrose] | 27 |  | 
diheptanoyl sucrose | 88 | 100 | 
dinonanoyl sucrose | 64 | 87 | 
didodecanoyl sucrose | 23 | 100 | 
monododecanoyl sucrose | 47 |  | 
CCCCCCCC(=O)OCC1OC(OC2(CO)OC(COC(=O)CCCCCCC)C(O)C2O)C(O)C(O)C1O (single isomer, unassigned) [dioctanoyl sucrose] | 88 |  | 100
monononanoyl sucrose | 16 |  | 
tridodecanoyl sucrose | 15 |  | 
monoheptanoyl sucrose | 17 |  | 
triheptanoyl sucrose | 16 |  | 
didecanoyl sucrose | 43 | 100 | 
monodecanoyl sucrose | 47 |  | 
tridnanoyl sucrose | 13 |  | 
dihexanoyl sucrose |  | 77 | 
tridecanoyl sucrose | 15 |  | 
monooctanoyl sucrose | 11 |  | 
